Like-named read-outs stand apart in the source and are kept apart here.
Legend:
[1] = topical; cited from earlier work
skin's Hyaluronic Acid = experiment: Live clinical human experiments, one side of face, neck and hands treated, other side base (placebo) lotion; assay type: in vivo; settings: 5% concentration, topical, versus placebo lotion on other side
Source text: In examining the prior art we found our patent to be unique: • 1. U.S. Pat. No. 5,391,373 (Mausner) is distinguished by its failure to use an adequate amount of Glucosamine in order to achieve the substrate concentration for the enzyme Hyaluronate Synthase to produce a sufficient quantity and concentration of Hyaluronic Acid necessary to achieve any meaningful change in the texture of the skin, including its ability to hold onto sufficient water to increase internal hydration. Their patent claims: “1. (d) about 0.001% to 0.1% of a carbohydrate-based complex comprising dextran, glycine, and Glucosamine;”. […] Their minimum range amount claimed is calculated as: 0.001% (0.00001) times 5% (0.05%) equals 0.0000005, which is 0.00005% and equals 5 one-hundred-thousandths of a gram per 100 milliliters, and is totally inconsequential for having any positive effect. […]

[2] = oral dose of Glucosamine Sulfate, humans; cited from earlier work
[3] = oral, dog; cited from earlier work
[4] = simple diffusion, not active transport; cited from earlier work
solar lentinges = settings: cited from earlier work
[5] = topical; cited from earlier work; remark: listed apart in the source

For N[C@H]1C(O)O[C@H](CO)[C@@H](O)[C@@H]1O.O=S(=O)(O)O (stereo partly drawn) [Glucosamine Sulfate], the “absorption through the skin” value [1] is given as “much better absorbed into the body via the skin”, the “production of the skin's Hyaluronic Acid” value (skin's Hyaluronic Acid) is given as “markedly enhancing” and the absorbed [2] is given as “about 90%”.
For N[C@@H]1[C@@H](O)[C@H](O)[C@@H](CO)O[C@@H]1O [Glucosamine, 2-amino-2-deoxy-alpha-D-glucose], the absorbed [3] is given as 87%.
For CC(=O)N[C@H]1C(O)O[C@H](CO)[C@@H](O)[C@@H]1O (stereo partly drawn) [N-acetylglucosamine, N-acetyl-D-Glucosamine], the “absorption through the skin” value [1] is listed as “very poorly absorbed through the skin” and the oral absorption [4] is listed as “not well absorbed orally”.
For Ascorbyl Glucosamine, the “effect on skin ("liver spot") pigmentation” value (solar lentinges) is given as “no positive effects”.
In the case of “hyaluronic acid [250,000 Dalton sized hyaluronic acid]”, the “absorption into the skin” value [5] is given as “very low percentage”.
In the case of “hyaluronic acid [600,000 Dalton molecular weight hyaluronic acid]”, the “absorption into the skin” value [5] is listed as “only a few percent”.

From US20070092469A1, “Topically applied Glucosamine Sulfate and all its related, precursor, and derivative compounds significantly increases the skin's natural produciton of hyaluronic acid for the rejuvenation of healthier younger-looking skin; while PhosphatidylCholine is required to replace its deficiency caused by …” (priority 2005, published 2007)
